{"source": "patent US20240139236A1", "about": "“COPPER HISTIDINATE COMPOSITIONS AND USES THEREOF” (Cyprium Therapeutics, Inc., priority 2021, published 2024)", "assay": "Single subcutaneous dose [14C]-copper histidinate pharmacokinetic study in healthy adult male subjects", "type": "in vivo, human", "conditions": "for Whole Blood:Serum Total Radioactivity Partitioning Ratio (Arithmetic Mean ± SD): n = 6; for Whole Blood:Serum Total Radioactivity Partitioning Ratio: 504 hour postdose, n = 1 (Subject 6)", "text": "The primary objective of this study was to quantitate total radioactivity (TRA) in whole blood, serum, and the eluted fractions of serum spiked with unlabeled copper histidinate (CuHis) from a size exclusion-high performance liquid chromatography (SEC-HPLC) column after a single subcutaneous (SC) administration of [^14C] CuHis in healthy adult male subjects. Further, the study was designed to determine the percentage of ^14C radioactivity associated with cellular components in whole blood over time (e.g., whole blood:serum partitioning concentration ratio).\nTo evaluate the safety and tolerability after a single SC administration of [^14C] CuHis in healthy adult male subjects. This was an open-label, single-dose, 1-period, PK study conducted at 1 study center in the USA. Six (6) healthy, adult male subjects were enrolled. Screening of subjects occurred within 28 days prior to dosing.\nOn Day 1, a single SC 3.0 mg (˜500 nCi) dose of [^14C]-CuHis was administered. Pharmacokinetic (PK) samples for determining TRA in whole blood and serum, and [^14C] CuHis in eluted fractions of serum spiked with unlabeled CuHis from an SEC-HPLC column were collected pre-dose and up to 168 hours post-dose (Subjects 1 to 5) or 504 hours post-dose (Subject 6).\nA single dose of 3.0 mg (˜500 nCi) [^14C]-CuHis (equivalent to approximately 500 μg of elemental copper) for SC bolus injection was administered into the upper arm of each subject at Hour 0 on Day 1. Hour 0 corresponded to the start of the bolus SC administration on Day 1. Subjects were instructed not to rub the injection site(s).\nBlood samples for determining TRA in whole blood and serum, and [^14C]-CuHis in eluted fractions of serum spiked with unlabeled CuHis from a SEC-HPLC column were collected predose and up to 168 hours postdose (Subjects 1 to 5) or up to 504 hours postdose (Subject 6).\nTRA CuHis concentration equivalents in whole blood and serum were determined using accelerator mass spectrometry (AMS) at Pharmaron ABS, Inc. (Germantown, Maryland, USA). The lower limits of quantitation (LLOQ) for TRA CuHis concentration equivalents in whole blood and serum ranged from 0.711 to 0.770 ng eq CuHis/mL and 0.239 to 0.284 ng eq CuHis/mL in the different subjects, respectively.\n[^14C]-CuHis concentrations in serum fractions from the SEC-HPLC column were determined using AMS at Pharmaron ABS, Inc. (Germantown, Maryland, USA). The LLOQ for [^14C]-CuHis concentrations in serum was 0.270 ng/mL.\nWhole blood: serum TRA partitioning ratios were calculated at each postdose time point for each subject as the ratio between whole blood TRA CuHis concentration equivalents and serum TRA CuHis concentration equivalents. The following parameters were calculated for whole blood and serum TRA, and serum [^14C]-CuHis, when possible: AUC0-24, AUC0-last, AUC0-∞, AUC% extrap, Cmax, tmax, tlag, Kel, and t1/2. The AUC0-24 Ratio was calculated for serum [^14C]-CuHis versus serum TRA. CL/F and Vz/F were calculated for serum [^14C]-CuHis.\nWhole blood and serum TRA CuHis concentration equivalents, serum [^14C]-CuHis concentrations, and whole blood:serum TRA partitioning ratios were listed and summarized by time point for all subjects in the PK population. Summary statistics, including sample size (n), arithmetic mean (Mean), standard deviation (SD), coefficient of variation (CV %), standard error of the mean (SEM), minimum, median, and maximum were calculated for the above data at each nominal time point.\nWhole blood and serum TRA PK parameters, and serum [^14C]-CuHis PK parameters were listed for each subject and summarized for all subjects in the PK population. Summary statistics (n, Mean, SD, CV %, SEM, minimum, median, maximum, geometric mean [Geom Mean], and geometric CV % [Geom CV %]) were calculated for all PK parameters.", "key": {"[1]": {"conditions": "single SC 3.0 mg, arithmetic mean ± SD"}, "[2]": {"conditions": "single SC 3.0 mg, geometric mean (geometric CV%)"}, "[3]": {"conditions": "single SC 3.0 mg, median (minimum, maximum)"}, "[4]": {"conditions": "single SC 3.0 mg, median (minimum, maximum), listed as [^14C]-CuHis"}, "[5]": {"conditions": "single SC 3.0 mg, up to 168 h, Subject 6 excluded, geometric mean (geometric CV%)"}}, "note": "Marks after values point to notes of the source that are not given here.", "data": [{"smiles": "N[C@@H](Cc1c[nH]cn1)C(=O)O.N[C@@H](Cc1c[nH]cn1)C(=O)O.[Cu]", "note": "[[^14C]-Copper Histidinate]", "values": [{"measurement": "Whole Blood:Serum Total Radioactivity Partitioning Ratio (Arithmetic Mean ± SD)", "setting": "0.25 hour postdose", "result": "0.6165 ± 0.1072"}, {"measurement": "Whole Blood:Serum Total Radioactivity Partitioning Ratio (Arithmetic Mean ± SD)", "setting": "0.5 hour postdose", "result": "0.6410 ± 0.05811"}, {"measurement": "Whole Blood:Serum Total Radioactivity Partitioning Ratio (Arithmetic Mean ± SD)", "setting": "0.75 hour postdose", "result": "0.6426 ± 0.05966"}, {"measurement": "arithmetic mean serum CuHis concentration, peak", "setting": "0.75 hours postdose", "result": 63.47, "unit": "ng/mL"}, {"measurement": "Whole Blood:Serum Total Radioactivity Partitioning Ratio (Arithmetic Mean ± SD)", "setting": "1 hour postdose", "result": "0.6888 ± 0.06107"}, {"measurement": "Whole Blood:Serum Total Radioactivity Partitioning Ratio (Arithmetic Mean ± SD)", "setting": "1.5 hour postdose", "result": "0.6728 ± 0.0542"}, {"measurement": "Whole Blood:Serum Total Radioactivity Partitioning Ratio (Arithmetic Mean ± SD)", "setting": "2 hour postdose", "result": "0.6761 ± 0.03446"}, {"measurement": "Whole Blood:Serum Total Radioactivity Partitioning Ratio (Arithmetic Mean ± SD)", "setting": "4 hour postdose", "result": "0.7010 ± 0.09398"}, {"measurement": "Whole Blood:Serum Total Radioactivity Partitioning Ratio (Arithmetic Mean ± SD)", "setting": "8 hour postdose", "result": "0.5856 ± 0.1175"}, {"measurement": "arithmetic mean serum TRA CuHis concentration equivalent, peak", "setting": "8 hours postdose", "result": 97.43, "unit": "ng eq CuHis/mL"}, {"measurement": "Whole Blood:Serum Total Radioactivity Partitioning Ratio (Arithmetic Mean ± SD)", "setting": "16 hour postdose", "result": "0.7144 ± 0.1134"}, {"measurement": "Whole Blood:Serum Total Radioactivity Partitioning Ratio (Arithmetic Mean ± SD)", "setting": "24 hour postdose", "result": "0.6708 ± 0.08484"}, {"measurement": "Whole Blood:Serum Total Radioactivity Partitioning Ratio (Arithmetic Mean ± SD)", "setting": "36 hour postdose", "result": "0.7498 ± 0.04878"}, {"measurement": "Whole Blood:Serum Total Radioactivity Partitioning Ratio (Arithmetic Mean ± SD)", "setting": "36 hour postdose, listed as [^14C]-CuHis", "result": 0.7498}, {"measurement": "Whole Blood:Serum Total Radioactivity Partitioning Ratio (Arithmetic Mean ± SD)", "setting": "48 hour postdose", "result": "0.8329 ± 0.09811"}, {"measurement": "Whole Blood:Serum Total Radioactivity Partitioning Ratio (Arithmetic Mean ± SD)", "setting": "72 hour postdose", "result": "1.209 ± 0.1925"}, {"measurement": "Whole Blood:Serum Total Radioactivity Partitioning Ratio (Arithmetic Mean ± SD)", "setting": "96 hour postdose", "result": "1.612 ± 0.3461"}, {"measurement": "Whole Blood:Serum Total Radioactivity Partitioning Ratio (Arithmetic Mean ± SD)", "setting": "120 hour postdose", "result": "1.853 ± 0.3512"}, {"measurement": "Whole Blood:Serum Total Radioactivity Partitioning Ratio (Arithmetic Mean ± SD)", "setting": "144 hour postdose", "result": "2.163 ± 0.3333"}, {"measurement": "Whole Blood:Serum Total Radioactivity Partitioning Ratio (Arithmetic Mean ± SD)", "setting": "168 hour postdose", "result": "2.392 ± 0.222"}, {"measurement": "Whole Blood:Serum Total Radioactivity Partitioning Ratio (Arithmetic Mean ± SD)", "setting": "168 hour postdose, listed as [^14C]-CuHis", "result": 2.392}, {"measurement": "arithmetic mean whole blood TRA CuHis concentration equivalents, highest level", "setting": "168 hours postdose", "result": 100.9, "unit": "ng eq CuHis/mL"}, {"measurement": "Whole Blood:Serum Total Radioactivity Partitioning Ratio", "result": "2.160*"}, {"measurement": "Whole Blood:Serum Total Radioactivity Partitioning Ratio", "setting": "listed as [^14C]-CuHis", "result": 2.16}, {"measurement": "serum TRA CuHis concentration equivalent", "setting": "504 hours postdose, Subject 6", "result": 30.7, "unit": "ng eq CuHis/mL"}, {"measurement": "whole blood TRA CuHis concentration equivalent", "setting": "504 hours postdose, Subject 6", "result": 66.3, "unit": "ng eq CuHis/mL"}, {"measurement": "exposure to TRA (AUC0-last) higher in whole blood than in serum", "setting": "by 168 hours postdose", "result": "approximately 29%"}, {"measurement": "exposure to TRA (AUC0-24) lower in whole blood than in serum", "setting": "first 24 hours postdose", "result": "approximately 34%"}, {"measurement": "exposure to TRA in the serum associated with [14C]-CuHis", "setting": "first 24 hours postdose", "result": "Approximately 9%"}, {"measurement": "distribution phase half-life, serum [14C]-CuHis", "setting": "initial rapid decrease after peak, estimated", "result": "2 to 3", "unit": "h"}, {"measurement": "peak exposure to TRA (Cmax), whole blood compared with serum", "setting": "single SC 3.0 mg", "result": "similar"}, {"measurement": "AUC0-∞, serum total radioactivity", "setting": "single SC 3.0 mg, Subject 6 excluded, geometric mean (geometric CV%)", "result": "23390 (25.7) [n = 5]^c ng eq CuHis · hr/mL"}, {"measurement": "AUC% extrap, serum [14C]-copper histidinate", "setting": "[1]", "result": "12.37 ± 8.3964 [n = 5]^e %"}, {"measurement": "AUC% extrap, serum total radioactivity", "setting": "[1]", "result": "58.34 ± 12.677 [n = 5]^c %"}, {"measurement": "CL/F, serum [14C]-copper histidinate", "setting": "[1]", "result": "10.34 ± 1.6214 [n = 5]^e L/hr"}, {"measurement": "Kel, serum [14C]-copper histidinate", "setting": "[1]", "result": "0.0166 ± 0.01512 [n =5]^e 1/hr"}, {"measurement": "Kel, serum total radioactivity", "setting": "[1]", "result": "0.003278 ± 0.001588 [n = 5]^c 1/hr"}, {"measurement": "t1/2, serum [14C]-copper histidinate (terminal elimination phase)", "setting": "[1]", "result": "74.842 ± 49.1558 [n = 5]^e hr"}, {"measurement": "t1/2, serum [14C]-copper histidinate (terminal elimination phase)", "setting": "single SC 3.0 mg, arithmetic mean ± SD, listed as [^14C]-CuHis", "result": "~75", "unit": "h"}, {"measurement": "AUC0-24, serum [14C]-copper histidinate", "setting": "[2]", "result": "185.6 (20.6) ng · hr/mL"}, {"measurement": "AUC0-24, serum total radioactivity", "setting": "[2]", "result": "1993 (21.4) [n = 6] ng eq CuHis · hr/mL"}, {"measurement": "AUC0-24, whole blood total radioactivity", "setting": "[2]", "result": "1315 (30.4) [n = 6] ng eq CuHis · hr/mL"}, {"measurement": "AUC0-24 Ratio, serum [14C]-CuHis versus serum total radioactivity", "setting": "[2]", "result": "0.09317 (19.5) [n = 6]"}, {"measurement": "AUC0-last, serum [14C]-copper histidinate", "setting": "[2]", "result": "249.3 (10.6) ng · hr/mL"}, {"measurement": "AUC0-∞, serum [14C]-copper histidinate", "setting": "[2]", "result": "296.0 (15.3) ng · hr/mL"}, {"measurement": "Cmax, serum [14C]-copper histidinate", "setting": "[2]", "result": "67.14 (35.9) ng/mL"}, {"measurement": "Cmax, serum total radioactivity", "setting": "[2]", "result": "95.78 (24.3) [n = 6] ng eq CuHis/mL"}, {"measurement": "Cmax, whole blood total radioactivity", "setting": "[2]", "result": "100.1 (14.8) [n = 6] ng eq CuHis/mL"}, {"measurement": "AUC0-24 Ratio, serum [14C]-CuHis versus serum total radioactivity", "setting": "single SC 3.0 mg, geometric mean (geometric CV%), listed as [^14C]-CuHis", "result": 0.09317}, {"measurement": "tlag, serum [14C]-copper histidinate", "setting": "[3]", "result": "0.00 (0.00, 0.00) [n = 6] hr"}, {"measurement": "tlag, serum total radioactivity", "setting": "[3]", "result": "0.00 (0.00, 0.00) [n = 6] hr"}, {"measurement": "tlag, whole blood total radioactivity", "setting": "[3]", "result": "0.00 (0.00, 0.00) [n = 6] hr"}, {"measurement": "tmax, serum [14C]-copper histidinate", "setting": "[3]", "result": "0.747 (0.50, 0.76) hr"}, {"measurement": "tmax, serum total radioactivity", "setting": "[3]", "result": "8.007 (7.99, 16.02) [n = 6] hr"}, {"measurement": "tmax, whole blood total radioactivity", "setting": "[3]", "result": "168.006 (144.01, 168.03) [n = 6] hr"}, {"measurement": "tmax, serum [14C]-copper histidinate", "setting": "[4]", "result": 0.75, "unit": "h"}, {"measurement": "tmax, serum total radioactivity", "setting": "[4]", "result": "~8", "unit": "h"}, {"measurement": "tmax, whole blood total radioactivity", "setting": "[4]", "result": "~168", "unit": "h"}, {"measurement": "AUC0-last, serum total radioactivity", "setting": "[5]", "result": "9390 (13.4) [n = 5]^c ng eq CuHis · hr/mL"}, {"measurement": "AUC0-last, whole blood total radioactivity", "setting": "[5]", "result": "12130 (15.3) [n = 5]^c ng eq CuHis · hr/mL"}]}]}
